{"source": "paper PMC5926424", "about": "(Japanese Journal of Cancer Research : Gann, 2000)", "key": {"[1]": {"test_system": "HDL", "details": "cited from earlier work"}, "[2]": {"test_system": "albumin", "details": "cited from earlier work"}, "[3]": {"test_system": "LDL", "details": "cited from earlier work"}, "[4]": {"test_system": "T.Tn cells", "type": "cell-based", "details": "for ATX-S10(Na) uptake: 3 h"}, "[5]": {"details": "T.Tn cells, 50 μg/ml ATX-S10(Na), 10% FCS, 37C, Fig. 4"}}, "note": "Read-outs that look alike come from different tables or passages of the source."}
{"smiles": "C=Cc1c(C)c2cc3nc(c(CC(=O)N[C@@H](CC(=O)O)C(=O)O)c4[nH]c(cc5nc(cc1[nH]2)C(C)=C5CC)c(C)c4C(=O)O)[C@@H](CCC(=O)O)[C@@H]3C", "note": "[NPe6, N-aspartyl chlorin-e6]", "values": [{"measurement": "Fraction bound to HDL", "setting": "[1]", "result": 19, "unit": "%"}, {"measurement": "Fraction bound to albumin", "setting": "[2]", "result": 80, "unit": "%"}, {"measurement": "Fraction bound to LDL", "setting": "[3]", "result": 1, "unit": "%"}]}
{"smiles": "CCCN(CCC)S(=O)(=O)c1ccc(C(=O)O)cc1", "note": "[Probenecid]", "values": [{"measurement": "ATX-S10(Na) uptake", "setting": "[4]; 30 µM", "result": "112.3 % of control"}, {"measurement": "ATX-S10(Na) uptake", "setting": "[4]; 100 µM", "result": "105.5 % of control"}, {"measurement": "ATX-S10(Na) uptake", "setting": "[4]; 300 µM", "result": "113.1 % of control"}, {"measurement": "ATX-S10(Na) uptake", "setting": "[4]; 1000 µM", "result": "115.7 % of control"}]}
{"smiles": "CCN(CC)CCCC(C)Nc1ccnc2cc(Cl)ccc12", "note": "(stereo not shown) [chloroquine]", "values": [{"measurement": "Effect of endocytosis inhibitor on cellular uptake of ATX-S10(Na)", "setting": "[4]", "result": "partially but significantly inhibited"}]}
{"smiles": "CC[C@@]1([C@@H]2O[C@@H]([C@H]3O[C@@](O)(CO)[C@H](C)C[C@@H]3C)C[C@@H]2C)CC[C@H]([C@]2(C)CC[C@]3(C[C@H](O)[C@@H](C)[C@@H]([C@@H](C)[C@@H](OC)[C@H](C)C(=O)O)O3)O2)O1", "note": "[monensin]", "values": [{"measurement": "Effect of endocytosis inhibitor on cellular uptake of ATX-S10(Na)", "setting": "[4]; [5]", "result": "partially but significantly inhibited"}]}
{"smiles": "O=CC(=O)c1ccccc1", "note": "[phenylglyoxal]", "values": [{"measurement": "Effect of endocytosis inhibitor on cellular uptake of ATX-S10(Na)", "setting": "[4]; [5]", "result": "partially but significantly inhibited"}]}
